We go through twelve compounds from patent US20220220128A1, “HETEROCYCLIC COMPOUNDS AS KINASE INHIBITORS, COMPOSITIONS COMPRISING THE HETEROCYCLIC COMPOUND, AND METHODS OF USE THEREOF” (JS Innopharm (Shanghai) Ltd, priority 2019, published 2022).

In experiment [1] the test system is TT cells. The experiment in a line: TT Cell Proliferation Assay (WST-8, 8 days). The settings on record: Homo sapiens, TT, 192 h, growth inhibition in TT cells, read-out: TT Cellular Activity. Type of experiment: cell-based. As to the method:
Compounds disclosed herein were tested for the inhibition of RET by a cancer cell proliferation assay commonly known as MTT assay. In this assay, a complete media was prepared by adding 10% fetal bovine serum to RPMI-1640 medium (Life technology). TT cells were added to each of 88 wells of a 96 well plate at a seeding density of 6,000 cells/well/90 μL. The cells were allowed to attach to the plate by incubating at 37° C. for 24 hours. The compound was dissolved in DMSO (SIGMA). A solution of test compound was prepared in complete media by serial dilution to obtain the following concentrations: 50 μM, 15 μM, 5 μM, 1.5 μM, 0.5 μM, 0.15 μM, 0.05 μM, 0.015 μM and 0.005 μM. The test compound solution (10 μL) was added to each of 80 cell-containing wells. The final concentrations of the compound were following: 5 μM, 1.5 μM, 0.5 μM, 0.15 μM, 0.05 μM, 0.015 μM, 0.005 μM, 0.0015 μM and 0.0005 μM. The final concentration of DMSO is 0.5%. To the 8 remaining cell-containing wells, only complete media (containing 0.5% DMSO) was added to form a control group in order to measure maximal proliferation. To the remaining 8 empty wells, complete media was added to for a vehicle control group in order to measure background. The plates were incubated at 37° C. for 8 days. 10 μL WST-8 solution (DOJINDO, Cell Counting KIT-8) was added to each well. The plates were further incubated at 37° C. for 5 hours, and then read for the absorbance using a microplate reader at 450 nm. The IC50 was calculated using GraphPad Prism.

Experiment [2] deals with T1, human KDR kinase (Homo sapiens, UniProt P35968).
T1 construct: purchased Carna 08-191
Put plainly: KDR Kinase Assay (LanthaScreen TR-FRET enzymatic assay). The experiment is classed as biochemical. The settings on record: 1.2 nM KDR, 92 μM ATP. As to the method:
Compounds were tested in a LanthaScreen™ time-resolved fluorescence energy transfer (TR-FRET) enzymatic assay from Invitrogen. The assay used human KDR kinase (Carna 08-191). Test compounds were prepared and diluted in DMSO in 3-fold serial dilutions to 50× of the final testing concentrations. The compounds were then further diluted to 5× by the kinase reaction buffer (50 mM HEPES pH 7.5, 0.0015% Brij-35). The enzymatic reaction for compound testing was performed in a white 384-well polypropylene plate (Corning 3573) with a total reaction volume of 25 μl containing 1.2 nM KDR, 3 μM peptide substrate FAM-P22 (GL Biochem 112393), and 92 μM ATP (Sigma A7699-1G). The assay started with loading RET diluted in kinase reaction buffer to wells, followed by addition of equal volume of 5× compounds for 15-min incubation at the room temperature for pre-treatment. The enzymatic reaction was initiated by addition of mixture of the substrate and ATP prepared in kinase reaction buffer. After incubation at 28° C. for one hour, 25 μl of stopper buffer (a mixture of 100 mM HEPES pH 7.5 buffer, 0.015% Brij-35, 50 mM EDTA and 0.2% of coating reagent 3 (Cliper Lifesciences)) and produce TR-FRET signals. After 30 minutes of incubation at room temperature, the plate was read in a Caliper with the following settings: Excitation 340 nm (30)/Emission1 495 nm (10)/Emission2 520 nm (25). The TR-FRET values were dimensionless numbers that were calculated as the ratio of the acceptor ([…]) signal to the donor (Terbium) signal. Percent of control was calculated as the percentage of compound-treated vs 1% DMSO vehicle-treated. The dose-response curves were generated and the IC50s were calculated by nonlinear sigmoid curve fitting using XLFit.
On the technique in general: TR-FRET usually uses a lanthanide donor and a delayed reading to cut background.

Experiment [3] deals with T2, human RET kinase (Homo sapiens, UniProt P07949).
T2 construct: purchased Carna 08-159
The experiment in a line: RET Kinase Assay (LanthaScreen TR-FRET enzymatic assay). The settings on record: 7 nM RET, 23 μM ATP. The experiment is classed as biochemical. As for the experimental part: Compounds were tested in a LanthaScreen™ time-resolved fluorescence energy transfer (TR-FRET) enzymatic assay from Invitrogen. The assay used human RET kinase (Carna 08-159). Test compounds were prepared and diluted in DMSO in 3-fold serial dilutions to 50× of the final testing concentrations. The compounds were then further diluted to 5× by the kinase reaction buffer (50 mM HEPES pH 7.5, 0.0015% Brij-35). The enzymatic reaction for compound testing was performed in a white 384-well polypropylene plate (Corning 3573) with a total reaction volume of 25 μl containing 7 nM RET, 3 μM peptide substrate FAM-P2 (GL Biochem 112394), and 23 μM ATP (Sigma A7699-1G). The assay started with loading RET diluted in kinase reaction buffer to wells, followed by addition of equal volume of 5× compounds for 15-min incubation at the room temperature for pre-treatment. The enzymatic reaction was initiated by addition of mixture of the substrate and ATP prepared in kinase reaction buffer. After incubation at 28° C. for one hour, 25 μl of stopper buffer (a mixture of 100 mM HEPES pH 7.5 buffer, 0.015% Brij-35, 50 mM EDTA and 0.2% of coating reagent 3 (Cliper Lifesciences)) and produce TR-FRET signals. After 30 minutes of incubation at room temperature, the plate was read in a Caliper with the following settings: Excitation 340 nm (30)/Emission1 495 nm (10)/Emission2 520 nm (25). The TR-FRET values were dimensionless numbers that were calculated as the ratio of the acceptor ([…]) signal to the donor (Terbium) signal. Percent of control was calculated as the percentage of compound-treated vs 1% DMSO vehicle-treated. The dose-response curves were generated and the IC50s were calculated by nonlinear sigmoid curve fitting using XLFit.

T2 sequence (P07949 29-1114): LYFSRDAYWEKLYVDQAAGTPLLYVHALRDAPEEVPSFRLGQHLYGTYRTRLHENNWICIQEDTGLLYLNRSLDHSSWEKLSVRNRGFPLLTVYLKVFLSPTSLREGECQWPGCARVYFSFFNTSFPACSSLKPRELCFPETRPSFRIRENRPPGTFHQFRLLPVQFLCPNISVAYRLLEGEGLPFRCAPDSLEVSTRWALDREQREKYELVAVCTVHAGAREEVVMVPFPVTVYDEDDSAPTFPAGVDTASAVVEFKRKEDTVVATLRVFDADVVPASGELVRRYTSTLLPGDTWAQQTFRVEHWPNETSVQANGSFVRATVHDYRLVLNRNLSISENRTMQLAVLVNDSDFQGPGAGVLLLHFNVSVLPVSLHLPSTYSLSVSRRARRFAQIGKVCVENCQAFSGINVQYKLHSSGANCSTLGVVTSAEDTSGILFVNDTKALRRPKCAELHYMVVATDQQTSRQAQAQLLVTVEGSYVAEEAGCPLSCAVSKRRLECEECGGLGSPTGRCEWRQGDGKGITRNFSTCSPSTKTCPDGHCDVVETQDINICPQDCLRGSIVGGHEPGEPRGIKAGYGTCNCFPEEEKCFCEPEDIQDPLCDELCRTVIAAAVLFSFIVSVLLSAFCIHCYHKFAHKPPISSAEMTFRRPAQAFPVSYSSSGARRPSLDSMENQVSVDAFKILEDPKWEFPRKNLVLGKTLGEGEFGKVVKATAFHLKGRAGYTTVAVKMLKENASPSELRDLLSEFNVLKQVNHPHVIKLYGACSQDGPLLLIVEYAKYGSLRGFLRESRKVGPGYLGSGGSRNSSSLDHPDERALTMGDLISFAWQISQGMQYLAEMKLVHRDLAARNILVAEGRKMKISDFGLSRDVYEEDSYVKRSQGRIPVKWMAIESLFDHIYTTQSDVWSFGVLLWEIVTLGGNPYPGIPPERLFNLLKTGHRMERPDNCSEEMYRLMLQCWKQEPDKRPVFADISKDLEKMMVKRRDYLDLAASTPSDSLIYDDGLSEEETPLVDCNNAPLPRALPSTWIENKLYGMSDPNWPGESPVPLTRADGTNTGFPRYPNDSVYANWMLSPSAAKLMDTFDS
T1 sequence (P35968 20-1356): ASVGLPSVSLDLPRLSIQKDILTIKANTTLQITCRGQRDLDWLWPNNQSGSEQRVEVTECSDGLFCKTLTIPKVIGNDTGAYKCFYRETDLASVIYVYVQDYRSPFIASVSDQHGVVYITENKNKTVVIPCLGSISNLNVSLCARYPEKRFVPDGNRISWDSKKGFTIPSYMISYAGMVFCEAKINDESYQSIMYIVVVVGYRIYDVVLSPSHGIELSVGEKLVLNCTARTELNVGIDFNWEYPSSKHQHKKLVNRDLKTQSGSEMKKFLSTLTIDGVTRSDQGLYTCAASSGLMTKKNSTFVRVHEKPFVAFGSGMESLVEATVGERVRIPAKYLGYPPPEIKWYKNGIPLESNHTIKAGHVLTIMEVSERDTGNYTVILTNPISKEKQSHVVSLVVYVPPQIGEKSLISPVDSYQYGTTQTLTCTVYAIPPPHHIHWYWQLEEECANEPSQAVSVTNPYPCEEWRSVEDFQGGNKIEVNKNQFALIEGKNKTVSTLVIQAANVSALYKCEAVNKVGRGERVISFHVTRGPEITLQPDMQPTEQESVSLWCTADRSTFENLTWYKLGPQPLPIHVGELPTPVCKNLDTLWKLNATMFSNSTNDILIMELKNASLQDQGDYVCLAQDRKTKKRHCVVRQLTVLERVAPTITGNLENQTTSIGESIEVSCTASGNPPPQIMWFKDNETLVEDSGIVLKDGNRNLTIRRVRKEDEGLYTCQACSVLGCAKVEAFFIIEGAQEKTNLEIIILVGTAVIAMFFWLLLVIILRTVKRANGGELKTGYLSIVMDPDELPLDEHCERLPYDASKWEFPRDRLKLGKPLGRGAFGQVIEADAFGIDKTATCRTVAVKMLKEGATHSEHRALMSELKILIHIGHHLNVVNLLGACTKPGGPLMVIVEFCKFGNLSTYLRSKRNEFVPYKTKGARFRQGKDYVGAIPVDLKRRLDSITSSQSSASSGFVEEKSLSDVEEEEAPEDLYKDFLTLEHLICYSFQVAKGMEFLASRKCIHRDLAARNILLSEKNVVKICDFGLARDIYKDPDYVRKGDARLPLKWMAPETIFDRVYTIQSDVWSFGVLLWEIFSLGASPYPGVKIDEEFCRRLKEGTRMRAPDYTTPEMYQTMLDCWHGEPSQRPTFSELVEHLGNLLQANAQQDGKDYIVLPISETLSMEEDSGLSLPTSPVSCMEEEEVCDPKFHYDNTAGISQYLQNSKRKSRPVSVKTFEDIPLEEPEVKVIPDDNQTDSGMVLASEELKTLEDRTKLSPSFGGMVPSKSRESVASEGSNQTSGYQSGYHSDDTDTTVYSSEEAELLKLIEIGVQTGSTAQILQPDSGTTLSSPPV

Take `Cc1cccc(Cl)c1C(=O)N[C@H]1[C@@H]2CN(c3ccc(-c4cc(-c5cnn(C)c5)cn5ncc(C#N)c45)cn3)C[C@@H]21` [Example 23, 2-chloro-N-((1R,5S,6s)-3-(5-(3-cyano-6-(1-methyl-1H-pyrazol-4-yl)pyrazolo[1,5-a]pyridin-4-yl)pyridin-2-yl)-3-azabicyclo[3.1.0]hexan-6-yl)-6-methylbenzamide]: the IC50 in experiment [1], in experiment [2] and in experiment [3] was not above 10 nM throughout.
As for `Cn1cc(-c2cc(-c3ccc(N4C[C@@H]5[C@H](C4)[C@H]5NC(=O)c4c(F)cccc4Cl)nc3)c3c(C#N)cnn3c2)cn1` [Example 24, 2-chloro-N-((1R,5S,6s)-3-(5-(3-cyano-6-(1-methyl-1H-pyrazol-4-yl)pyrazolo[1,5-a]pyridin-4-yl)pyridin-2-yl)-3-azabicyclo[3.1.0]hexan-6-yl)-6-fluorobenzamide], the IC50 in experiment [1] is 10 to 50 nM; in experiment [2] it was not above 10 nM; in experiment [3] it was not above 10 nM.
`CC(C)CC(=O)N[C@H]1[C@@H]2CN(c3ccc(-c4cc(-c5cnn(C)c5)cn5ncc(C#N)c45)cn3)C[C@@H]21` [Example 25, N-((1R,5S,6s)-3-(5-(3-cyano-6-(1-methyl-1H-pyrazol-4-yl)pyrazolo[1,5-a]pyridin-4-yl)pyridin-2-yl)-3-azabicyclo[3.1.0]hexan-6-yl)-3-methylbutanamide]: the IC50 in experiment [1] is 10 to 50 nM; in experiment [2], 10 to 50 nM; in experiment [3], not above 10 nM.
`Cc1ccc(F)cc1C(=O)N[C@H]1[C@@H]2CN(c3ccc(-c4cc(-c5cnn(C)c5)cn5ncc(C#N)c45)cn3)C[C@@H]21` [Example 26, N-((1R,5S,6s)-3-(5-(3-cyano-6-(1-methyl-1H-pyrazol-4-yl)pyrazolo[1,5-a]pyridin-4-yl)pyridin-2-yl)-3-azabicyclo[3.1.0]hexan-6-yl)-5-fluoro-2-methylbenzamide]: the IC50 in experiment [1] is 10 to 50 nM; in experiment [2], not above 10 nM; in experiment [3] it was not above 10 nM.
`Cc1ccc(Cl)c(C(=O)N[C@H]2[C@@H]3CN(c4ccc(-c5cc(-c6cnn(C)c6)cn6ncc(C#N)c56)cn4)C[C@@H]32)n1` [Example 27, 3-chloro-N-((1R,5S,6s)-3-(5-(3-cyano-6-(1-methyl-1H-pyrazol-4-yl)pyrazolo[1,5-a]pyridin-4-yl)pyridin-2-yl)-3-azabicyclo[3.1.0]hexan-6-yl)-6-methylpicolinamide]: the IC50 in experiment [1] is 10 to 50 nM; in experiment [2], 10 to 50 nM; in experiment [3], not above 10 nM.
For `Cn1cc(-c2cc(-c3ccc(N4C[C@@H]5[C@H](C4)[C@H]5NC(=O)c4cc(F)ccc4Cl)nc3)c3c(C#N)cnn3c2)cn1` [Example 28, 2-chloro-N-((1R,5S,6s)-3-(5-(3-cyano-6-(1-methyl-1H-pyrazol-4-yl)pyrazolo[1,5-a]pyridin-4-yl)pyridin-2-yl)-3-azabicyclo[3.1.0]hexan-6-yl)-5-fluorobenzamide], the results for the IC50 in experiment [1], in experiment [2] and in experiment [3] were 10 to 50 nM, not above 10 nM and not above 10 nM, respectively.
As to `Cn1ccc(-c2cc(-c3ccc(N4C[C@@H]5[C@H](C4)[C@H]5NC(=O)c4ncccc4Cl)nc3)c3c(C#N)cnn3c2)n1` [Example 29, 3-chloro-N-((1R,5S,6s)-3-(5-(3-cyano-6-(1-methyl-1H-pyrazol-3-yl)pyrazolo[1,5-a]pyridin-4-yl)pyridin-2-yl)-3-azabicyclo[3.1.0]hexan-6-yl)picolinamide], the figures for the IC50 in experiment [1], in experiment [2] and in experiment [3] were 50 to 100 nM, 10 to 50 nM and not above 10 nM, respectively.
The like results for `Cn1cc(-c2cc(-c3ccc(N4C[C@@H]5[C@H](C4)[C@@H]5NC(=O)c4ncccc4Cl)nc3)c3c(C#N)cnn3c2)cn1` [Example 30, 3-chloro-N-((1R,5S,6r)-3-(5-(3-cyano-6-(1-methyl-1H-pyrazol-4-yl)pyrazolo[1,5-a]pyridin-4-yl)pyridin-2-yl)-3-azabicyclo[3.1.0]hexan-6-yl)picolinamide] were, in that order, 10 to 50 nM, 10 to 50 nM and not above 10 nM.
The like results for `CC(C)C(=O)N[C@H]1[C@@H]2CN(c3ccc(-c4cc(-c5cnn(C)c5)cn5ncc(C#N)c45)cn3)C[C@@H]21` [Example 31, N-((1R,5 S,6s)-3-(5-(3-cyano-6-(1-methyl-1H-pyrazol-4-yl)pyrazolo[1,5-a]pyridin-4-yl)pyridin-2-yl)-3-azabicyclo[3.1.0]hexan-6-yl)isobutyramide] were, in that order, 50 to 100 nM, 10 to 50 nM and not above 10 nM.
On to `Cn1cc(-c2cc(-c3ccc(N4C[C@@H]5[C@H](C4)[C@H]5NC(=O)C(N)c4ccccc4)nc3)c3c(C#N)cnn3c2)cn1` (stereo partly drawn) [Example 32, 2-amino-N-((1R,5S,6s)-3-(5-(3-cyano-6-(1-methyl-1H-pyrazol-4-yl)pyrazolo[1,5-a]pyridin-4-yl)pyridin-2-yl)-3-azabicyclo[3.1.0]hexan-6-yl)-2-phenylacetamide], for which the IC50 in experiment [1] was not above 10 nM; in experiment [2], more than 100 nM; in experiment [3] it was not above 10 nM.
For the compound `COc1ccc(CN[C@H]2[C@@H]3CN(c4ccc(-c5cc(-c6cnn(C)c6)cn6ncc(C#N)c56)cn4)C[C@@H]32)cn1` [Example 33, 4-(6-((1R,5S,6s)-6-(((6-methoxypyridin-3-yl)methyl)amino)-3-azabicyclo[3.1.0]hexan-3-yl)pyridin-3-yl)-6-(1-methyl-1H-pyrazol-4-yl)pyrazolo[1,5-a]pyridine-3-carbonitrile], the IC50 in experiment [1] is 10 to 50 nM; in experiment [2], 10 to 50 nM; in experiment [3] it was not above 10 nM.
In the case of `COc1ccc(CN(C)[C@H]2[C@@H]3CN(c4ccc(-c5cc(-c6cnn(C)c6)cn6ncc(C#N)c56)cn4)C[C@@H]32)cn1` [Example 34, 4-(6-((1R,5S,6s)-6-(((6-methoxypyridin-3-yl)methyl)(methyl)amino)-3-azabicyclo[3.1.0]hexan-3-yl)pyridin-3-yl)-6-(1-methyl-1H-pyrazol-4-yl)pyrazolo[1,5-a]pyridine-3-carbonitrile], the results for the IC50 in experiment [1], in experiment [2] and in experiment [3] were 10 to 50 nM, 10 to 50 nM and not above 10 nM, respectively.
